Test results published in PubChem BioAssay (NCI).
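Following 48 hours of exposure in 96-well plates, responses at five concentrations were used to interpolate endpoints linearly. TGI: total growth inhibition.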

Columns and labels:
Assay in all cases: inhibition of tumour cell growth, NCI panel, 48 h
HL-60(TB) leukemia = tested on: HL-60(TB) leukemia
MCF7 breast = tested on: MCF7 breast
HS 578T breast = tested on: HS 578T breast
HCT-15 colon = tested on: HCT-15 colon
MDA-MB-231 breast = tested on: MDA-MB-231 breast
T-47D breast = tested on: T-47D breast
NCI/ADR-RES ovarian = tested on: NCI/ADR-RES ovarian
SF-295 CNS = tested on: SF-295 CNS
SNB-75 CNS = tested on: SNB-75 CNS
HOP-62 NSCLC = tested on: HOP-62 NSCLC
SK-OV-3 ovarian = tested on: SK-OV-3 ovarian
TK-10 renal = tested on: TK-10 renal
UO-31 renal = tested on: UO-31 renal
NCI-H23 lung = tested on: NCI-H23 lung
NCI-H460 lung = tested on: NCI-H460 lung
BT-549 breast = tested on: BT-549 breast
OVCAR-5 ovarian = tested on: OVCAR-5 ovarian
HOP-92 NSCLC = tested on: HOP-92 NSCLC
M14 melanoma = tested on: M14 melanoma
SF-539 CNS = tested on: SF-539 CNS
SK-MEL-5 melanoma = tested on: SK-MEL-5 melanoma
OVCAR-3 ovarian = tested on: OVCAR-3 ovarian
MOLT-4 leukemia = tested on: MOLT-4 leukemia
LOX IMVI melanoma = tested on: LOX IMVI melanoma
OVCAR-4 ovarian = tested on: OVCAR-4 ovarian
HCT-116 colon = tested on: HCT-116 colon
A549 NSCLC = tested on: A549 NSCLC
HCC-2998 colon = tested on: HCC-2998 colon
SNB-19 CNS = tested on: SNB-19 CNS
RXF 393 renal = tested on: RXF 393 renal
CAKI-1 renal = tested on: CAKI-1 renal
U251 CNS = tested on: U251 CNS
CCRF-CEM leukemia = tested on: CCRF-CEM leukemia
SK-MEL-28 melanoma = tested on: SK-MEL-28 melanoma
HT29 colon = tested on: HT29 colon
COLO 205 colon = tested on: COLO 205 colon
EKVX NSCLC = tested on: EKVX NSCLC
UACC-257 melanoma = tested on: UACC-257 melanoma
A498 renal = tested on: A498 renal
PC-3 prostate = tested on: PC-3 prostate
UACC-62 melanoma = tested on: UACC-62 melanoma
SF-268 CNS = tested on: SF-268 CNS
KM12 colon = tested on: KM12 colon
OVCAR-8 ovarian = tested on: OVCAR-8 ovarian
ACHN renal = tested on: ACHN renal
RPMI-8226 leukemia = tested on: RPMI-8226 leukemia
SW-620 colon = tested on: SW-620 colon
NCI-H226 lung = tested on: NCI-H226 lung
786-0 renal = tested on: 786-0 renal
SN12C renal = tested on: SN12C renal
DU-145 prostate = tested on: DU-145 prostate
SR leukemia = tested on: SR leukemia
IGROV1 ovarian = tested on: IGROV1 ovarian
MDA-MB-435 = tested on: MDA-MB-435
K-562 leukemia = tested on: K-562 leukemia
SK-MEL-2 melanoma = tested on: SK-MEL-2 melanoma

SMILES: c1csc(-c2cscc2-c2cccs2)c1
- TGI (HL-60(TB) leukemia): > 100 µM
- TGI (MCF7 breast): 49.5 µM
- TGI (HS 578T breast): > 100 µM
- TGI (HCT-15 colon): > 100 µM
- TGI (MDA-MB-231 breast): > 100 µM
- TGI (T-47D breast): > 100 µM
- TGI (NCI/ADR-RES ovarian): > 100 µM
- TGI (SF-295 CNS): > 100 µM
- TGI (SNB-75 CNS): > 100 µM
- TGI (HOP-62 NSCLC): 93.8 µM
- TGI (SK-OV-3 ovarian): > 100 µM
- TGI (TK-10 renal): > 100 µM
- TGI (UO-31 renal): > 100 µM
- TGI (NCI-H23 lung): > 100 µM
- TGI (NCI-H460 lung): > 100 µM
- TGI (BT-549 breast): > 100 µM
- TGI (OVCAR-5 ovarian): > 100 µM
- TGI (HOP-92 NSCLC): > 100 µM
- TGI (M14 melanoma): > 100 µM
- TGI (SF-539 CNS): 51.4 µM
- TGI (SK-MEL-5 melanoma): > 100 µM
- TGI (OVCAR-3 ovarian): 47.3 µM
- TGI (MOLT-4 leukemia): > 100 µM
- TGI (LOX IMVI melanoma): > 100 µM
- TGI (OVCAR-4 ovarian): > 100 µM
- TGI (HCT-116 colon): > 100 µM
- TGI (A549 NSCLC): > 100 µM
- TGI (HCC-2998 colon): 82.6 µM
- TGI (SNB-19 CNS): > 100 µM
- TGI (RXF 393 renal): 77.7 µM
- TGI (CAKI-1 renal): > 100 µM
- TGI (U251 CNS): > 100 µM
- TGI (CCRF-CEM leukemia): > 100 µM
- TGI (SK-MEL-28 melanoma): > 100 µM
- TGI (HT29 colon): > 100 µM
- TGI (COLO 205 colon): > 100 µM
- TGI (EKVX NSCLC): > 100 µM
- TGI (UACC-257 melanoma): > 100 µM
- TGI (A498 renal): > 100 µM
- TGI (PC-3 prostate): 39.9 µM
- TGI (UACC-62 melanoma): > 100 µM
- TGI (SF-268 CNS): > 100 µM
- TGI (KM12 colon): > 100 µM
- TGI (OVCAR-8 ovarian): > 100 µM
- TGI (ACHN renal): > 100 µM
- TGI (RPMI-8226 leukemia): > 100 µM
- TGI (SW-620 colon): > 100 µM
- TGI (NCI-H226 lung): 65.4 µM
- TGI (786-0 renal): > 100 µM
- TGI (SN12C renal): > 100 µM
- TGI (DU-145 prostate): 8.22 µM
- TGI (SR leukemia): > 100 µM
- TGI (IGROV1 ovarian): > 100 µM
- TGI (MDA-MB-435): > 100 µM
- TGI (K-562 leukemia): > 100 µM

SMILES: O=C(Nc1ccccc1)c1cc2c(cc1Cl)SC(NNCCO)=NS2(=O)=O
- TGI (HL-60(TB) leukemia): > 100 µM
- TGI (MCF7 breast): > 100 µM
- TGI (HS 578T breast): > 100 µM
- TGI (HCT-15 colon): > 100 µM
- TGI (MDA-MB-231 breast): > 100 µM
- TGI (SK-MEL-2 melanoma): > 100 µM
- TGI (T-47D breast): > 100 µM
- TGI (NCI/ADR-RES ovarian): > 100 µM
- TGI (SF-295 CNS): > 100 µM
- TGI (SNB-75 CNS): > 100 µM
- TGI (HOP-62 NSCLC): > 100 µM
- TGI (SK-OV-3 ovarian): > 100 µM
- TGI (TK-10 renal): > 100 µM
- TGI (UO-31 renal): > 100 µM
- TGI (NCI-H23 lung): > 100 µM
- TGI (NCI-H460 lung): > 100 µM
- TGI (BT-549 breast): > 100 µM
- TGI (HOP-92 NSCLC): > 100 µM
- TGI (M14 melanoma): > 100 µM
- TGI (SF-539 CNS): > 100 µM
- TGI (SK-MEL-5 melanoma): > 100 µM
- TGI (MOLT-4 leukemia): > 100 µM
- TGI (LOX IMVI melanoma): > 100 µM
- TGI (OVCAR-4 ovarian): > 100 µM
- TGI (HCT-116 colon): > 100 µM
- TGI (HCC-2998 colon): > 100 µM
- TGI (SNB-19 CNS): > 100 µM
- TGI (RXF 393 renal): > 100 µM
- TGI (CAKI-1 renal): > 100 µM
- TGI (U251 CNS): > 100 µM
- TGI (CCRF-CEM leukemia): > 100 µM
- TGI (SK-MEL-28 melanoma): > 100 µM
- TGI (HT29 colon): > 100 µM
- TGI (COLO 205 colon): > 100 µM
- TGI (EKVX NSCLC): > 100 µM
- TGI (UACC-257 melanoma): > 100 µM
- TGI (A498 renal): > 100 µM
- TGI (PC-3 prostate): > 100 µM
- TGI (UACC-62 melanoma): > 100 µM
- TGI (SF-268 CNS): > 100 µM
- TGI (KM12 colon): > 100 µM
- TGI (OVCAR-8 ovarian): > 100 µM
- TGI (ACHN renal): > 100 µM
- TGI (RPMI-8226 leukemia): > 100 µM
- TGI (SW-620 colon): > 100 µM
- TGI (NCI-H226 lung): > 100 µM
- TGI (786-0 renal): > 100 µM
- TGI (DU-145 prostate): > 100 µM
- TGI (SR leukemia): > 100 µM
- TGI (IGROV1 ovarian): > 100 µM
- TGI (MDA-MB-435): > 100 µM
- TGI (K-562 leukemia): > 100 µM
